{
  "source": "patent US7288273B1",
  "about": "“Gallotannins and ellagitannins as regulators of cytokine release” (The Penn State Research Foundation, priority 2000, dated 2007)",
  "key": {"[1]": {"tested_on": "IL-1β secretion from h-PBMC's", "assay": "IL-1β release from h-PBMC's, ELISA", "type": "cell-based, human", "settings": "h-PBMC's", "protocol": "(§1) Authentic samples of agrimoniin and coriariin A were supplied by Professor Yoshida (Okayama University, Japan). Dimeric gallotannin (analog of coriariin A) and β-D-PGG were synthesized as described. LPS (E. coli 055:B5 phenol extract, MW range 50-100 KD). Ficoll-Histopaque (ρ=1.077 g/mL), Fetal Bovine Serum, sterile, hybridoma tested (FCS), gentamicin 10 mg/mL. L-glutamine, 200 mM. Dextran B-512 Leuconostoc Av M.W. 580000, and Trypan Blue stain were purchased from Sigma. Hanks Buffer Saline Solution 1×, with phenol red, mediatech (HBSS) and RPMI 1640 1×, mediatech were purchased from Fisher Scientific, Human IL-1β and TNF-α Enzyme Linked ImmunoSorbent Assay (ELISA) kits were purchased from R and D Systems, Minneapolis, Minn. Fresh heparinized blood was obtained from health human subjects (ages 20-34).\n(§2) Dose-Response Data: General Procedure. H-PBMC's were isolated by reported procedures (10. 18). The cells counted and the viability was determined by Trypan Blue exclusion (typically, viability exceeded 95%). The concentration of the cells in the 0.5 mL wells was adjusted to 1×10^6 cells/well by diluting with the required amount of RPMI.\n(§3) The appropriate amount of a tannin (or LPS) stock solution in HBSS was added to each well to furnish the concentration values reported in the Figures. […] The culture plates were incubated in a 5% CO2, 37° C. humidified incubator for the indicated time. At the end of the time interval, 450 μL of the culture supernatant from each well was harvested, after centrifugation at 400 g, 25° C., 10 min. with brake, and stored at −78° C. pending ELISA analysis for the cytokine(s). The ELISA assays were conducted per the manufacturer's instructions using standard calibration curves to calculate cytokine concentration from observed absorbance readings. The cytokine values reported are averages of three runs±SE.\n(§4) The dimeric antitumor ellagitannins coriariin A and agrimoniin, the monomeric gallotannin β-D-pentagalloylglucose (β-D-PGG) and the dimeric gallotannin of this invention were all examined in this study. The dimeric gallotannin is an analog of coriariin A and is identical to the parent ellagitannin except that the galloyl rings at O(4) and O(6) are not joined in a hexahydroxydiphenoyl (HHDP) linkage. h-PBMC's were incubated with the compound under investigation for the indicated length of time and the amounts of both IL-1β and, independently, TNF-α, present in the culture supernatants was determined using commercially available ELISA kits. In each case, LPS was used as a positive control while untreated cells were reserved as negative controls.\nIn the third study, compounds 17c-20c were examined for their ability to induce secretion of IL-1β from h-PBMC's (FIG. 16). Recall from the introduction that the cytokine IL-1β is also released in an LPS-stimulated septic shock response. The compounds that cause very little secretion of IL-1β or none at all will be the optimal compounds for potential septic shock therapeutics because they will be less likely themselves to induce a septic shock response."}, "sarcoma-180 tumors": {"tested_on": "sarcoma-180 tumors", "settings": "cited from earlier work; for antitumor effect, in words: mice infected with sarcoma-180 tumors; for life span increase / regressors: Miyamoto's mouse studies, sarcoma-180"}, "[2]": {"tested_on": "IL-1β secretion from h-PBMC's", "settings": "cited from earlier work"}, "L929 murine fibroblast": {"tested_on": "L929 murine fibroblast", "assay": "qualitative L929 murine fibroblast lysis assay of h-PBMC supernatant", "type": "cell-based", "from_the_text": "This indirect measure of TNF-α levels in the h-PBMC supernatant provided the first evidence which implicated this cytokine in tannin-mediated antitumor activity and encouraged a more quantitative assessment of the TNF-α liberating capacity of agrimoniin and the related species as described below."}, "[3]": {"settings": "in vivo; cited from earlier work"}, "[4]": {"tested_on": "TNF-α secretion from h-PBMC's", "assay": "TNF-α release from h-PBMC's, ELISA", "type": "cell-based, human", "protocol": "as §1, §2, §3, §4\nIn the first study, the induction of TNF-α secretion from h-PBMC's in the presence of each compound 17c-21c was measured. The h-PBMC's were incubated with each compound for 24 hours. The TNF-α levels in the cell culture supernatant were assayed by Enzyme Linked ImmunoSorbant Assay (ELISA). The data point for each assay represent the mean of triplicate measurements. […] (See FIG. 11)."}, "[5]": {"tested_on": "LPS induced secretion of TNF-α", "assay": "In vivo study in rats given LPS with or without β-PGG", "protocol": "The ability of β-PGG to function in vivo was investigated in collaboration with Dr. Charles Lang of the Hershey Medical School. In this experiment, two groups of rats were used. One group was intravenously administered 1 mg/kg of LPS as well as 25 mg of β-PGG. The second group was given only 1 mg/kg of LPS. […] These preliminary in vivo results were encouraging, however several problems with the use of β-PGG as an inhibitor are evident. A large amount of β-PGG was required to elicit inhibition because β-PGG is a small monomeric gallotannin that is able to interact with other blood proteins such as rat serum albumin."}, "[6]": {"tested_on": "LPS induced TNF-α secretion from h-PBMC's", "assay": "Inhibition of LPS induced TNF-α secretion from h-PBMC's", "type": "cell-based, human", "settings": "h-PBMC's", "protocol": "In the second study, the ability of compounds 17c-20c to inhibit LPS induced TNF-α production in h-PBMC's was investigated using four assays. The first experiment was a kinetics run in which the h-PBMC's were initially incubated with a fixed concentration of LPS (5 μg/mL) for 45 minutes. This incubation period was followed by addition of a fixed concentration (10 μg/mL) of compounds 17c-20c. The cells were harvested at varying intervals of time. […] The optimal time was determined by comparing the amount of TNF-α secreted by LPS alone to the amount of TNF-α secreted by LPS and substrate at each time point.\nThe second assay determined the minimum amount of substrate required for inhibition. LPS (10 μg/mL) was incubated with h-PBMC's for 45 minutes followed by addition of 17c-20c at varying concentrations. The cell culture supernatant was harvested after 8 hours. The inherent variability in using cells from different subjects, or in the day of assay, made it difficult to compare overall effectiveness of inhibitors. Therefore, to more easily identify the concentration at which maximum inhibition occurs for a given compound, the TNF-α secretion was normalized by calculating a percent of maximum secretion value (based on LPS alone) (FIG. 13). […] The optimal concentration for inhibition varied between substrates, but the general dose response trend was the same. Overall, the maximum inhibition was 45% for 18c and 20c, and 25% for 19c.\nThe third assay investigated the ability of 17c, 18c, and 20c to inhibit LPS induced TNF-α secretion using a smaller dosage of LPS (5 μg/mL) (FIG. 14). Again, the response was dose dependent. The maximum inhibition was 45% for 17c and 20c, and 35% for 18c.\nIn the fourth assay the varying concentrations of substrates 17c-20c and LPS were added at the same time to determine the effect of addition sequence on the inhibition of TNF-α secretion (FIG. 15). The addition time seemed to make a difference in the overall dose response trend. However, maximum inhibition was the same as when the compounds were added 45 minutes after LPS addition (about 40% for each compound).\nFinally, in the last study, analogs 19c and 20c were again tested for inhibition LPS induced TNF-α secretion (FIG. 17). In this assay a smaller dose of LPS was used to determine if inhibition was greater when much lower doses of LPS were present. The substrates were added 45 minutes after LPS addition and the cells were harvested after 8 hours. It doesn't appear as though the substrates are better inhibitors when smaller amounts of LPS are used, again perhaps reflecting receptor saturation with LPS at this dosage."}, "[7]": {"settings": "fixed concentrations, time course"}, "[8]": {"settings": "rats, 1 mg/kg LPS intravenously and 25 mg β-PGG"}},
  "note": "“And” between values parts separate entries of the source, which are not always exact repeats. Equal entries are not always repeated.",
  "data": [
    {"compound": "O=C(O[C@H]1O[C@@H]2COC(=O)c3cc(O)c(O)c(O)c3-c3c(cc(O)c(O)c3O)C(=O)O[C@H]2[C@@H]2OC(=O)c3cc(O)c(O)c(O)c3-c3c(cc(O)c(O)c3O)C(=O)O[C@@H]12)c1cc(O)c(O)c(Oc2c(C(=O)O[C@H]3O[C@@H]4COC(=O)c5cc(O)c(O)c(O)c5-c5c(cc(O)c(O)c5O)C(=O)O[C@H]4[C@@H]4OC(=O)c5cc(O)c(O)c(O)c5-c5c(cc(O)c(O)c5O)C(=O)O[C@@H]34)cc(O)c(O)c2O)c1", "note": "[agrimoniin]", "values": [
      {"measurement": "IL-1β secreted above blank", "setting": "[1]; 4 h treatment with 28 μM agrimoniin", "result": "ca. 1 ng/mL"},
      {"measurement": "antitumor effect, in words", "setting": "sarcoma-180 tumors", "result": "induce tumor regression"},
      {"measurement": "IL-1β secreted (reported earlier)", "setting": "[2]; 20 μM agrimoniin", "result": "ca. 1.2 ng/mL"},
      {"measurement": "time of maximal IL-1β secretion", "setting": "[2]; agrimoniin-mediated, Miyamoto", "result": "ca. 24 h"},
      {"measurement": "release of TNF-α, indirect measure by L929 lysis", "setting": "L929 murine fibroblast", "result": "promoted release of TNF-α in substantial amounts"}
    ]},
    {"compound": "TNF-α", "values": [
      {"measurement": "clearance from serum, t1/2", "setting": "[3]", "result": "6.5 to 10.5", "unit": "min"}
    ]},
    {"compound": "O=C(OC1OC2COC(=O)c3cc(O)c(O)c(O)c3-c3c(cc(O)c(O)c3O)C(=O)OC2C(OC(=O)c2cc(O)c(O)c(O)c2)C1OC(=O)c1cc(O)c(O)c(O)c1)c1cc(O)c(O)c(Oc2c(C(=O)OC3OC4COC(=O)c5cc(O)c(O)c(O)c5-c5c(cc(O)c(O)c5O)C(=O)OC4C(OC(=O)c4cc(O)c(O)c(O)c4)C3OC(=O)c3cc(O)c(O)c(O)c3)cc(O)c(O)c2O)c1", "note": "(stereo not drawn) [coriariin A]", "values": [
      {"measurement": "TNF-α secretion from h-PBMC's, in words", "setting": "[4]", "result": "higher levels of TNF-α"},
      {"measurement": "IL-1β inducing ability relative to agrimoniin on a molar basis", "setting": "[1]; 4 h", "result": "twice that of agrimoniin"},
      {"measurement": "life span increase", "setting": "sarcoma-180 tumors", "result": 238, "unit": "%"},
      {"measurement": "regressors", "setting": "sarcoma-180 tumors", "result": "3/6"},
      {"measurement": "antitumor effect, in words", "setting": "sarcoma-180 tumors", "result": "induce tumor regression"},
      {"measurement": "release of TNF-α, indirect measure by L929 lysis", "setting": "L929 murine fibroblast", "result": "promoted release of TNF-α in substantial amounts"}
    ]},
    {"compound": "O=C(OCC1OC(OC(=O)c2cc(O)c(O)c(O)c2)[C@H](OC(=O)c2cc(O)c(O)c(O)c2)[C@@H](OC(=O)c2cc(O)c(O)c(O)c2)C1OC(=O)c1cc(O)c(O)c(O)c1)c1cc(O)c(O)c(O)c1", "note": "(stereo partly drawn) [Compound 1, β-D-pentagalloylglucose]", "values": [
      {"measurement": "TNF-α secretion from h-PBMC's, in words", "setting": "[4]", "result": "much less TNF-α discharge"},
      {"measurement": "TNF-α detected at 4 h reading", "setting": "[4]; fixed concentrations, 4 h", "result": "only trace amounts"},
      {"measurement": "time of maximum TNF-α discharge", "setting": "[4]; [7]", "result": "ca. 24 h"},
      {"measurement": "TNF-α secreted from 90 min", "setting": "[5]; rats given LPS 1 mg/kg intravenously + 25 mg β-PGG (LPS + 1), 90 min, individual rats, ± SD", "result": "6919.4 ± 823.2 pg/mL and 4509.4 ± 583.3 pg/mL and 8060.7 ± 918.2 pg/mL and 1928.4 ± 331.5 pg/mL"},
      {"measurement": "TNF-α secreted after 180 min", "setting": "[5]; rats given LPS 1 mg/kg intravenously + 25 mg β-PGG (LPS + 1), 180 min, individual rats, ± SD", "result": "733.9 ± 28.3 pg/mL and 291.7 ± 68.0 pg/mL and 1347.5 ± 150.4 pg/mL and 129.9 ± 105.5 pg/mL"},
      {"measurement": "TNF-α secretion compared to LPS-only rats, in words", "setting": "[5]; [8]", "result": "suppressed levels of TNF-α secretion"},
      {"measurement": "septic shock response (blood pressure)", "setting": "[5]; [8]", "result": "low blood pressure was still observed"},
      {"measurement": "IL-1β detected at 4 h reading", "setting": "[1]; fixed concentrations, 4 h", "result": "only trace amounts"},
      {"measurement": "time of maximum IL-1β discharge", "setting": "[1]; [7]", "result": "ca. 24 h"},
      {"measurement": "IL-1β secretion from h-PBMC's, in words", "setting": "[1]; listed as β-D-PGG", "result": "effective at stimulating the production of IL-1β"},
      {"measurement": "IL-1β secretion from h-PBMC's, in words", "setting": "[1]; listed as β-PGG", "result": "high levels of IL-1β"},
      {"measurement": "life span increase", "setting": "sarcoma-180 tumors", "result": 82, "unit": "%"},
      {"measurement": "regressors", "setting": "sarcoma-180 tumors", "result": "0/6"},
      {"measurement": "antitumor effect, in words", "setting": "sarcoma-180 tumors", "result": "much less effective antitumor agents"},
      {"measurement": "inhibition of LPS induced TNF-α secretion from h-PBMC's, in words", "setting": "[6]", "result": "can inhibit LPS induced secretion of TNF-α"}
    ]}
  ]
}
